The results in this text go back to the supplement of paper PMC10307832.

Common to all, as to assay: relative viability (nuclei count vs DMSO), 5 days (fraction); higher = more cells survive
Compound in test [1]: CN(NC(=O)CC(=O)NN(C)C(=S)c1ccccc1)C(=S)c1ccccc1 [Elesclomol]
The gist of the method: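 Viability was read as treated-well nuclei divided by vehicle-well nuclei, using the median across plates. Lung cancer cell lines in 1536-well plates were kept overnight at 37 °C, pinned with five √10-spaced library-drug doses, and after 5 days were Hoechst-stained, imaged at 4× and counted in MetaXpress. Plates passed only with control CV below 25% and at least one doubling.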

Compound in test [2]: CN(NC(=O)CC(=O)NN(C)C(=S)c1ccccc1)C(=S)c1ccccc1 [Elesclomol] + CS(=O)(=O)CCNCc1ccc(-c2ccc3ncnc(Nc4ccc(OCc5cccc(F)c5)c(Cl)c4)c3c2)o1 [Lapatinib] (partner 2 µM)
The essentials: (§1)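 Relative viability divides the nuclei count in treated wells by that in vehicle wells. Lung cancer cell lines were seeded in 1536-well plates, dosed by pin tool the next day, and fixed and stained after 5 days in one step with final 0.05% Triton X-100, 1% formaldehyde and 1 ug/ml Hoechst. Dosing was a single drug or a fixed anchor-drug dose plus five library-drug doses (not always all listed) in √10 steps, and values are medians of duplicate plates imaged at 4×.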

Compound in test [3]: CN(NC(=O)CC(=O)NN(C)C(=S)c1ccccc1)C(=S)c1ccccc1 [Elesclomol] + NC(=O)Nc1cc(-c2cccc(F)c2)sc1C(=O)N[C@H]1CCCNC1 [AZD7762] (partner 0.2 µM)
The essentials: as §1

Compound in test [4]: CN(NC(=O)CC(=O)NN(C)C(=S)c1ccccc1)C(=S)c1ccccc1 [Elesclomol] + O=C(CCCCCCC(=O)Nc1ccccc1)NO [Vorinostat] (partner 1 µM)
The gist of the method:
as §1

Compound in test [5]: CN(NC(=O)CC(=O)NN(C)C(=S)c1ccccc1)C(=S)c1ccccc1 [Elesclomol] + CC(=O)Nc1cccc(-n2c(=O)n(C3CC3)c(=O)c3c(Nc4ccc(I)cc4F)n(C)c(=O)c(C)c32)c1 [Trametinib] (partner 0.02 µM)
The gist of the method:
as §1

On to NCI-H1355, for which the relative viability in test [1] (0.003162 µM) is 1.02; in test [1] (0.01 µM), 0.685; in test [1] (0.03162 µM), 0.593; in test [1] (0.1 µM), 0.297; in test [2] (first compound 0.003162 µM), 1.05; in test [2] (first compound 0.01 µM) it was 0.786. The relative viability in test [2] (first compound 0.03162 µM) worked out at 0.657; in test [2] (first compound 0.1 µM), 0.222; in test [3] (first compound 0.003162 µM), 0.793; in test [3] (first compound 0.01 µM), 0.7; in test [3] (first compound 0.03162 µM), 0.478; in test [3] (first compound 0.1 µM), 0.179. Also, the relative viability in test [4] (first compound 0.003162 µM) is 0.617; in test [4] (first compound 0.01 µM), 0.524; in test [4] (first compound 0.03162 µM) it was 0.418; in test [4] (first compound 0.1 µM) it was 0.213; in test [5] (first compound 0.003162 µM) it was 0.434; in test [5] (first compound 0.01 µM), 0.408. Moreover, the relative viability stood at 0.356 in test [5] (first compound 0.03162 µM) and 0.159 in test [5] (first compound 0.1 µM).

As for NCI-H460, the relative viability turned out to be 1.01 in test [1] (0.003162 µM); 0.825 in test [1] (0.01 µM); 0.557 in test [1] (0.03162 µM); 0.0845 in test [1] (0.1 µM); 0.755 in test [2] (first compound 0.003162 µM); 0.229 in test [2] (first compound 0.01 µM). For the same cell line, the relative viability in test [2] (first compound 0.03162 µM) was determined as 0.0103; in test [2] (first compound 0.1 µM), 0.0101; in test [3] (first compound 0.003162 µM) it was 0.547; in test [3] (first compound 0.01 µM), 0.513; in test [3] (first compound 0.03162 µM), 0.232; in test [3] (first compound 0.1 µM), 0.048. For the same cell line, the relative viability came out at 0.712 in test [4] (first compound 0.003162 µM); 0.508 in test [4] (first compound 0.01 µM); 0.275 in test [4] (first compound 0.03162 µM); 0.018 in test [4] (first compound 0.1 µM); 0.117 in test [5] (first compound 0.003162 µM); 0.203 in test [5] (first compound 0.01 µM). The relative viability came to 0.0139 in test [5] (first compound 0.03162 µM) and 0.0132 in test [5] (first compound 0.1 µM).

In the case of NCI-H1993, the relative viability in test [1] (0.003162 µM) was 0.978; in test [1] (0.01 µM), 0.871; in test [1] (0.03162 µM), 0.782; in test [1] (0.1 µM) it was 0.543; in test [2] (first compound 0.003162 µM), 0.753; in test [2] (first compound 0.01 µM), 0.809. In addition, the relative viability in test [2] (first compound 0.03162 µM) is 0.697; in test [2] (first compound 0.1 µM), 0.563; in test [3] (first compound 0.003162 µM), 0.712; in test [3] (first compound 0.01 µM), 0.618; in test [3] (first compound 0.03162 µM), 0.475; in test [3] (first compound 0.1 µM), 0.315. In addition, the relative viability in test [4] (first compound 0.003162 µM) is 0.897; in test [4] (first compound 0.01 µM), 0.817; in test [4] (first compound 0.03162 µM), 0.469; in test [4] (first compound 0.1 µM) it was 0.288; in test [5] (first compound 0.003162 µM) it was 0.544; in test [5] (first compound 0.01 µM) it was 0.576. Besides, the results for the relative viability in test [5] (first compound 0.03162 µM) and in test [5] (first compound 0.1 µM) were 0.495 and 0.339, respectively.

Turning to ChaGo-K-1, the relative viability in test [1] (0.003162 µM) was determined as 0.947; in test [1] (0.01 µM), 0.952; in test [1] (0.03162 µM) it was 0.663; in test [1] (0.1 µM), 0.199; in test [3] (first compound 0.003162 µM) it was 0.88; in test [3] (first compound 0.01 µM), 0.715. Also, the relative viability in test [3] (first compound 0.03162 µM) was 0.416; in test [3] (first compound 0.1 µM), 0.139; in test [4] (first compound 0.003162 µM), 0.791; in test [4] (first compound 0.01 µM) it was 0.638; in test [4] (first compound 0.03162 µM), 0.338; in test [4] (first compound 0.1 µM), 0.146. For the same cell line, the relative viability worked out at 0.932 in test [5] (first compound 0.003162 µM), 0.802 in test [5] (first compound 0.01 µM), 0.571 in test [5] (first compound 0.03162 µM) and 0.15 in test [5] (first compound 0.1 µM).

With HCC-15, the relative viability in test [1] (0.003162 µM) stood at 0.964; in test [1] (0.01 µM), 0.828; in test [1] (0.03162 µM), 0.626; in test [1] (0.1 µM), 0.231; in test [2] (first compound 0.003162 µM), 0.869; in test [2] (first compound 0.01 µM) it was 0.684. In addition, the relative viability in test [2] (first compound 0.03162 µM) amounted to 0.574; in test [2] (first compound 0.1 µM), 0.284; in test [3] (first compound 0.003162 µM) it was 1.15; in test [3] (first compound 0.01 µM), 1.3; in test [3] (first compound 0.03162 µM) it was 1.13; in test [3] (first compound 0.1 µM), 0.632. Also, the relative viability in test [4] (first compound 0.003162 µM) stood at 0.81; in test [4] (first compound 0.01 µM), 0.776; in test [4] (first compound 0.03162 µM), 0.645; in test [4] (first compound 0.1 µM), 0.265; in test [5] (first compound 0.003162 µM) it was 0.351; in test [5] (first compound 0.01 µM) it was 0.42. In addition, the relative viability in test [5] (first compound 0.03162 µM) was found to be 0.345; in test [5] (first compound 0.1 µM) it was 0.158.

In the case of NCI-H2009, the relative viability in test [1] (0.003162 µM) is 0.889; in test [1] (0.01 µM), 0.416; in test [1] (0.03162 µM), 0.164; in test [1] (0.1 µM), 0.124; in test [2] (first compound 0.003162 µM), 0.841; in test [2] (first compound 0.01 µM) it was 0.178. Also, the relative viability in test [2] (first compound 0.03162 µM) is 0.136; in test [2] (first compound 0.1 µM) it was 0.107; in test [4] (first compound 0.003162 µM), 0.679; in test [4] (first compound 0.01 µM) it was 0.279; in test [4] (first compound 0.03162 µM), 0.162; in test [4] (first compound 0.1 µM) it was 0.0886. The relative viability in test [5] (first compound 0.003162 µM) was determined as 0.283; in test [5] (first compound 0.01 µM) it was 0.259; in test [5] (first compound 0.03162 µM), 0.15; in test [5] (first compound 0.1 µM), 0.0957.

For SK-LU-1, the relative viability was determined as 1.07 in test [1] (0.003162 µM); 0.779 in test [1] (0.01 µM); 0.659 in test [1] (0.03162 µM); 0.287 in test [1] (0.1 µM); 0.908 in test [2] (first compound 0.003162 µM); 0.518 in test [2] (first compound 0.01 µM). The relative viability came out at 0.333 in test [2] (first compound 0.03162 µM); 0.105 in test [2] (first compound 0.1 µM); 0.83 in test [4] (first compound 0.003162 µM); 0.659 in test [4] (first compound 0.01 µM); 0.471 in test [4] (first compound 0.03162 µM); 0.336 in test [4] (first compound 0.1 µM). In addition, the relative viability in test [5] (first compound 0.003162 µM) was determined as 0.517; in test [5] (first compound 0.01 µM), 0.316; in test [5] (first compound 0.03162 µM), 0.287; in test [5] (first compound 0.1 µM), 0.338.
